From patent publication US20130315830A1, “PSMA as a BioMarker for Androgen Activity in Prostate Cancer” (Cornell University, priority 2012, published 2013) come the findings set out here.

This experiment concerns LAPC-4, expressing wild-type AR.

Turning to `C[C@]12CCC(=O)C[C@@H]1CC[C@@H]1[C@@H]2CC[C@]2(C)[C@@H](O)CC[C@@H]12` [DHT, 5α-dihydrotestosterone], the PSMA expression entry is listed as “low level of PSMA”.
